Experimental data published in US8101180B2, “Anti-IGF-IR and/or anti-insulin/IGF-I hybrid receptors antibodies and uses thereof” (Pierre Fabre Medicament, priority 2002, dated 2012).
“Also recorded” adds a separate entry of the source.

Assays:
MCF-7 cells = assay: Apoptosis of MCF-7 cells (Annexin V-FITC/DAPI flow cytometry); type: cell-based, human; conditions: antibody 10 μg/ml + doxorubicin 2 μg/ml, 24 hours
Experimental: As indicated above, IGF-IR is capable of conferring protection against apoptosis when it is overexpressed on the surface of cells. […] In these experiments, the MCF-7 cells are inoculated at 2·10^4/cm^2 in Petri dishes and cultured for 24 h in RPMI without phenol red supplemented with 10% of fetal calf serum (FCS). The cells are then washed twice with PBS and put back into culture in medium with 0% FCS. They are allowed an adaptation time of 10 minutes at 37° C. before the addition of the antibodies at 10 μg/ml. After an extra 10 minutes at 37° C., recombinant IGF-I (Sigma) is added to the culture medium to a final concentration of 50 ng/ml. The cells are left at 37° C. again for one hour in order to allow the attachment of the antibodies and of the IGF-I. Finally, the doxorubicin (Sigma) is added to the culture medium at 2 μg/ml and the cells are incubated for 24 hours at 37° C.
The experiments have likewise been conducted with navelbine at a concentration of 10 μg/ml.
The analysis of the cell viability is carried out by flow cytometric analysis after labeling with the annexin V-FITC (20 minutes, 4° C.) and DAPI (2 μg/ml). The percentage of dead cells considered is the labeled population Annexin+/DAPI+. The antibody 5C2 is used as a control isotype.

IR = assay: Immunoprecipitation of IR from R−/IR-A and R−/IR-B cell lysates; type: binding
Excerpt: The used cells for this study are listed thereafter: • R+: R− fibroblasts stably transfected with the IGF-I receptor (IGF-IR) cDNA • R−/IR-A: R− fibroblasts stably transfected with the insulin receptor isoform A (IR-A) cDNA • R−/IR-B:R− fibroblasts stably transfected with the insulin receptor isoform B (IR-B) cDNA • R+/IR-A: R− fibroblasts stably co-transfected with the IGF-I and the insulin receptor isoform A cDNA and, therefore, expressing hybrid receptors A (Hybrid-RsA) • R+/IR-B: R− fibroblasts stably co-transfected with the IGF-I and the insulin receptor isoform B cDNA and, therefore, expressing hybrid receptors B (Hybrid-RsB)
For the obtention of cellular lysat, cells were solubilized in RIPA buffer and 4 mg protein used for immunoprecipitation.
Following immunoprecipitation, the pellet was resuspended in 2× sample buffer and subjected to SDS-PAGE (7.5% polyacrylamide).
Filters were blotted as follows: Filters containing R+ lysates (and therefore only IGF-IR) with an anti-IGF-IR β-subunit (Santa Cruz). Filters containing lysates from all the remaining cells with an antibody anti-IR β-subunit (Santa Cruz).

MCF-7 tumor = MCF-7 tumor growth in nude mice (subcutaneous xenograft); type: in vivo; conditions: for inhibition of MCF-7 tumor growth in vivo, murine versus humanized antibody: 125 μg/dose twice a week i.p. (Example 36)
Experimental: The in vivo selection was carried out in an established tumor model. In order to do this, nude mice received a subcutaneous implant of slow-release estrogen, indispensable for the taking of the tumor in a murine model. Twenty-four hours after implantation of the estrogens, 5·10^6 MCF-7 cells are grafted onto the right flank of the mouse subcutaneously. Five days after this cell graft, the tumors are measurable and batches of 6 mice are formed at random. The treatment of the mice is carried out twice per week, during 5 to 6 weeks, at the dose of 250 μg/dose/mouse. In the control group, the mice are treated in the same fashion with a murine control isotype. […] Another non exclusive hypothesis could be the recognition by these antibodies of the atypical IGF-IR as described in the paper of Siddle et al., (Siddle et al., 1994, Horn Res. 41(suppl. 2):56-65).
The long-term use of tamoxifen is associated with a significant increase in the risk of endometrial cancer (Fisher et al., J. of National Cancer Institute, 86, 7:527-537, 1994; VIDAL 2000, 1975-1976) and of collateral recurrence of E2-independent cancer of the breast (Li C. I. et al., J. Natl. Cancer Inst., July 4, 93(13):1008-1013, 2001). […] In order to do this, 7·10^6 MCF-7 cells were implanted sc (subcutaneously) in nude mice, 24 hours after implantation in these same mice of a grain of estradiol with prolonged release (0.72 mg/tablet liberated over 60 days), indispensable for the establishment of any E2-dependent human tumor in this animal species. Five days after this implantation, the tumors are measured and groups of 6 mice are formed. […] The tamoxifen is administered daily for 4 weeks except at the weekend. […] A study was previously carried out in order to verify that the solvent alone is without influence on the tumor growth.
To do this, 5·10^6 A549 cells were implanted subcutaneously in nude mice. Five days after this implantation, the tumors were measured and groups of 6 mice were formed. […] In the MCF-7 breast tumor model, a sustained-release oestradiol granule (0.72 mg/tablet released over 60 days) is implanted subcutaneously 24 hours before implantation of the cells. This granule is essential to the establishment of any E2-dependent human tumor in this animal species.

BxPC3 tumor = assay: BxPC3 pancreatic cancer xenograft; type: in vivo, nude mice; conditions: 250 μg/dose/mouse twice per week i.p.
Experimental: (§1) In these 4 models, the treatment was carried out twice per week i.p. at a rate of 250 μg/dose/mouse.

[1] = test system: noninfected Sf9 insect cells; assay: FACS labeling of noninfected Sf9 insect cells; type: binding; conditions: FACScan
Excerpt: In FIG. 4B, Sf9 cells uniquely expressing IGF-IR are labeled with αIR3 (2) or anti-IR(3), the peak (1) representing the single cells. In FIG. 4C, Sf9 cells uniquely expressing IR are labeled with an anti-IR (3) or αIR3 (2), the peak (1) representing the single cells.
evaluating the supernatants of hybridomas positive in the two first screenings in terms of differential recognition of IGF-IR and of IR on insect cells infected with baculoviruses respectively expressing IGF-IR or IR,
For the immunization stage, mice were injected twice, by the subcutaneous route, with 8 μg of recombinant IGF-IR. Three days before the fusion of the cells of the […] with the cells of the murine myeloma Sp2OAg14, the mice were stimulated by an intravenous injection of 3 μg of the recombinant receptor. Fourteen days after the fusion, the supernatants of hybridomas were screened by ELISA, on plates sensitized by recombinant IGF-IR. The hybridomas whose supernatants were found positive were conserved and amplified before being tested on the FACScan so as to verify that the antibodies produced were likewise capable of recognizing native IGF-IR. In order to do this, MCF-7 cells from an estrogen-dependent tumor of the breast overexpressing IGF-IR were incubated with each of the culture supernatants produced by the hybridomas selected in ELISA. […]

SK-ES-1 tumor = assay: SK-ES-1 osteosarcoma xenograft; type: in vivo, nude mice; conditions: 250 μg/dose/mouse twice per week i.p.
Experimental: as §1

DU145 tumor = assay: DU145 androgen-independent prostate tumor xenograft; type: in vivo, nude mice; conditions: 250 μg/dose/mouse twice per week i.p.
Experimental: as §1

In the case of “h7C10: humanized 7C10 anti-IGF-IR antibody, isotype IgG1 (humanized 1 written 7H2HM)”, the “potentiation of doxorubicin-induced cell death” value (MCF-7 cells) is reported as “same effect”, the “immunoprecipitation of IR” value (IR) is reported as “Neither 7C10 nor h7C10 appreciably immunoprecipitate IR” and the “inhibition of MCF-7 tumor growth in vivo, murine versus humanized antibody” value (“inhibition … murine versus humanized antibody” below) (MCF-7 tumor) is reported as “exactly the same intensity as that observed with its murine counterpart”. For the same substance, the “inhibition … murine versus humanized antibody” value (MCF-7 tumor; listed as 7H2HM) was “perfectly comparable with the murine antibody 7C10”.

For “7C10: murine monoclonal anti-IGF-IR IgG1 secreted by the hybridoma deposited at the CNCM under the number I-2717”, the “potentiation of doxorubicin-induced cell death” value (MCF-7 cells) was “significant increase in cell death”, the “antitumor activity in BxPC3 model” value (BxPC3 tumor) was “significant activity” and the “MFI (Mean fluorescence intensity), Noninfected cells” value [1] was 8.6. For the same substance, the “immunoprecipitation of IR” value (IR) was “Neither 7C10 nor h7C10 appreciably immunoprecipitate IR”, the “antitumor activity in SKES-1 osteosarcoma model” value (SK-ES-1 tumor) was “significant activity” and the “antitumor activity in DU145 model” value (DU145 tumor) was “significant activity”. The “inhibition … murine versus humanized antibody” value (MCF-7 tumor) was “significant inhibition of tumor growth” and the “inhibition of MCF-7 tumor growth in vivo” value (MCF-7 tumor; 250 μg/dose/mouse twice per week i.p.) was “very significant inhibition of the tumor growth; also recorded: significantly inhibiting the growth; also recorded: significantly more efficacious than tamoxifen”.
